This assay concerns the target T1, KRAS G12C 1-169, his-tagged protein, GDP-loaded (Homo sapiens, UniProt P01116, G12C).
T1 construct: KRAS G12C 1-169, his-tagged protein, GDP-loaded
Briefly: Biochemical assay: covalent modification of KRAS G12C measured by mass spectrometry (RapidFire/TOF or Q-Exactive). The class given is binding. Particulars: covalent binding to (modification of) KRAS G12C after a ten minute incubation period. The procedure, abridged:
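Intact-mass readout (TOF or Q-Exactive, charge-envelope deconvolution) gives percent covalent adduct from modified and unmodified species. Compound at 10, 30 or 100 μM was incubated at room temperature for 10 min to 24 h with 2 μM or 0.5 μM GDP-bound KRAS G12C 1-169 in Hepes/NaCl/MgCl2 buffer, then acid-quenched.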

Consider 17 compounds from patent publication US11377441B2, “Covalent inhibitors of KRAS” (Araxes Pharma LLC, priority 2017, dated 2022).

Each structure is given as a SMILES string.

On to `C=CC(=O)N1C[C@H](C)N(c2nc(OC3CCN(C(C)C)CC3)nc3c(F)c(-c4c(C)ccc5cnn(C)c45)c(Cl)cc23)C[C@H]1C` (atropisomer, axis not shown) [Compound 167, 1-((2R,5S)-4-((R)-6-chloro-7-(1,6-dimethyl-1H-indazol-7-yl)-8-fluoro-2-(1-isopropylpiperidin-4-yloxy)quinazolin-4-yl)-2,5-dimethylpiperazin-1-yl)prop-2-en-1-one], for which the Binding % entry was “+++ (+++ indicates binding activity greater than 80%)”. Take `C=CC(=O)N1C[C@H](C)N(c2nc(OCCN3CCN(C)CC3)nc3c(F)c(-c4c(C)ccc5cnn(C)c45)c(Cl)cc23)C[C@H]1C` (atropisomer, axis not shown) [Compound 168, 1-((2R,5S)-4-((S)-6-chloro-7-(1,6-dimethyl-1H-indazol-7-yl)-8-fluoro-2-(2-(4-methylpiperazin-1-yl)ethoxy)quinazolin-4-yl)-2,5-dimethylpiperazin-1-yl)prop-2-en-1-one]: the Binding % result is “+ (+ indicates binding activity greater than 0% and up to 50%)”.

Regarding `C=CC(=O)N1C[C@H](C)N(c2nc(OCCN3CCN(C)CC3)nc3c(F)c(-c4c(C)ccc5cnn(C)c45)c(Cl)cc23)C[C@H]1C` (atropisomer, axis not shown) [Compound 169, 1-((2R,5S)-4-((R)-6-chloro-7-(1,6-dimethyl-1H-indazol-7-yl)-8-fluoro-2-(2-(4-methylpiperazin-1-yl)ethoxy)quinazolin-4-yl)-2,5-dimethylpiperazin-1-yl)prop-2-en-1-one], the Binding % entry is recorded as “+++ (+++ indicates binding activity greater than 80%)”. Turning to `C=CC(=O)N1C[C@H](C)N(c2nc(N3CC(NC)C3)nc3c(F)c(-c4c(C)ccc5cnn(C)c45)c(Cl)cc23)C[C@H]1C` (atropisomer, axis not shown) [Compound 170, 1-((2R,5S)-4-((R)-6-chloro-7-(1,6-dimethyl-1H-indazol-7-yl)-8-fluoro-2-(3-(methylamino)azetidin-1-yl)quinazolin-4-yl)-2,5-dimethylpiperazin-1-yl)prop-2-en-1-one], the Binding % result is given as “+++ (+++ indicates binding activity greater than 80%)”.

As to `C=CC(=O)N1C[C@H](C)N(c2nc(N3CC(N(C)C)C3)nc3c(F)c(-c4c(F)ccc5cnn(C6CC6)c45)c(Cl)cc23)C[C@H]1C` (atropisomer, axis not shown) [Compound 201, 1-((2R,5S)-4-((S)-6-chloro-7-(1-cyclopropyl-6-fluoro-1H-indazol-7-yl)-2-(3-(dimethylamino)azetidin-1-yl)-8-fluoroquinazolin-4-yl)-2,5-dimethylpiperazin-1-yl)prop-2-en-1-one], the Binding % entry is given as “+++ (+++ indicates binding activity greater than 80%)”. For `C=CC(=O)N1C[C@H](C)N(c2nc(N3CC(NC)C3)nc3c(F)c(-c4c(C)ccc5cnn(C)c45)c(Cl)cc23)C[C@H]1C` (atropisomer, axis not shown) [Compound 206, 1-((2R,5S)-4-((R)-6-chloro-7-(1,6-dimethyl-1H-indazol-7-yl)-8-fluoro-2-(3-(methylamino)azetidin-1-yl)quinazolin-4-yl)-2,5-dimethylpiperazin-1-yl)prop-2-en-1-one], the Binding % result is “+++ (+++ indicates binding activity greater than 80%)”. With `C=CC(=O)N1C[C@H](C)N(c2nc(N3CC(NC)C3)nc3c(F)c(-c4c(C)ccc5cnn(C6CC6)c45)c(Cl)cc23)C[C@H]1C` (atropisomer, axis not shown) [Compound 207, 1-((2R,5S)-4-((S)-6-chloro-7-(1-cyclopropyl-6-methyl-1H-indazol-7-yl)-8-fluoro-2-(3-(methylamino)azetidin-1-yl)quinazolin-4-yl)-2,5-dimethylpiperazin-1-yl)prop-2-en-1-one], the Binding % entry is “+ (+ indicates binding activity greater than 0% and up to 50%)”. In the case of `C=CC(=O)N1C[C@H](C)N(c2nc(N3CC(NC)C3)nc3c(F)c(-c4c(C)ccc5cnn(C6CC6)c45)c(Cl)cc23)C[C@H]1C` (atropisomer, axis not shown) [Compound 208, 1-((2R,5S)-4-((R)-6-chloro-7-(1-cyclopropyl-6-methyl-1H-indazol-7-yl)-8-fluoro-2-(3-(methylamino)azetidin-1-yl)quinazolin-4-yl)-2,5-dimethylpiperazin-1-yl)prop-2-en-1-one] it was “+++ (+++ indicates binding activity greater than 80%)”; in that of `C=CC(=O)N1C[C@H](C)N(c2nc(N3CC(NC)C3)nc3c(F)c(-c4c(C)ccc5[nH]nc(C6CC6)c45)c(Cl)cc23)C[C@H]1C` (atropisomer, axis not shown) [Compound 210, 1-((2R,5S)-4-((S)-6-chloro-7-(3-cyclopropyl-5-methyl-1H-indazol-4-yl)-8-fluoro-2-(3-(methylamino)azetidin-1-yl)quinazolin-4-yl)-2,5-dimethylpiperazin-1-yl)prop-2-en-1-one], “+ (+ indicates binding activity greater than 0% and up to 50%)”; in that of `[2H]C([2H])([2H])N(C1CN(c2nc(N3C[C@@H](C)N(C(=O)C=C)C[C@@H]3C)c3cc(Cl)c(-c4c(C)ccc5cnn(C)c45)c(F)c3n2)C1)C([2H])([2H])[2H]` (atropisomer, axis not shown) [Compound 211, 1-((2R,5S)-4-((S)-6-chloro-7-(1,6-dimethyl-1H-indazol-7-yl)-2-(3-(di-perdeuteromethylamino)azetidin-1-yl)-8-fluoroquinazolin-4-yl)-2,5-dimethylpiperazin-1-yl)prop-2-en-1-one], “+ (+ indicates binding activity greater than 0% and up to 50%)”.

Consider `[2H]C([2H])([2H])N(C1CN(c2nc(N3C[C@@H](C)N(C(=O)C=C)C[C@@H]3C)c3cc(Cl)c(-c4c(C)ccc5cnn(C)c45)c(F)c3n2)C1)C([2H])([2H])[2H]` (atropisomer, axis not shown) [Compound 212, 1-((2R,5S)-4-((R)-6-chloro-7-(1,6-dimethyl-1H-indazol-7-yl)-2-(3-(di-perdeuteromethylamino)azetidin-1-yl)-8-fluoroquinazolin-4-yl)-2,5-dimethylpiperazin-1-yl)prop-2-en-1-one], for which the Binding % result is reported as “+++ (+++ indicates binding activity greater than 80%)”. Consider `C=CC(=O)N1C[C@H](C)N(c2nc(N3CC(N(C)C)C3)nc3c(F)c(-c4ccc(F)c5cnn(C6CC6)c45)c(Cl)cc23)C[C@H]1C` (atropisomer, axis not shown) [Compound 217, 1-((2R,5S)-4-((S)-6-chloro-7-(1-cyclopropyl-4-fluoro-1H-indazol-7-yl)-2-(3-(dimethylamino)azetidin-1-yl)-8-fluoroquinazolin-4-yl)-2,5-dimethylpiperazin-1-yl)prop-2-en-1-one], for which the Binding % entry is “+ (+ indicates binding activity greater than 0% and up to 50%)”. In the case of `C=CC(=O)N1C[C@H](C)N(c2nc(N3CC(N(C)C)C3)nc3c(F)c(-c4ccc(F)c5cnn(C6CC6)c45)c(Cl)cc23)C[C@H]1C` (atropisomer, axis not shown) [Compound 218, 1-((2R,5S)-4-((R)-6-chloro-7-(1-cyclopropyl-4-fluoro-1H-indazol-7-yl)-2-(3-(dimethylamino)azetidin-1-yl)-8-fluoroquinazolin-4-yl)-2,5-dimethylpiperazin-1-yl)prop-2-en-1-one] it was “+++ (+++ indicates binding activity greater than 80%)”; in that of `C=CC(=O)N1C[C@H](C)N(c2nc(N3CC(NC)C3)nc3c(F)c(-c4c(C)ccc5[nH]nc(C)c45)c(Cl)cc23)C[C@H]1C` (atropisomer, axis not shown) [Compound 219, 1-((2R,5S)-4-((S)-6-chloro-7-(3,5-dimethyl-1H-indazol-4-yl)-8-fluoro-2-(3-(methylamino)azetidin-1-yl)quinazolin-4-yl)-2,5-dimethylpiperazin-1-yl)prop-2-en-1-one], “+ (+ indicates binding activity greater than 0% and up to 50%)”. With `C=CC(=O)N1C[C@H](C)N(c2nc(N3CC(NC)C3)nc3c(F)c(-c4c(C)ccc5[nH]nc(C)c45)c(Cl)cc23)C[C@H]1C` (atropisomer, axis not shown) [Compound 220, 1-((2R,5S)-4-((R)-6-chloro-7-(3,5-dimethyl-1H-indazol-4-yl)-8-fluoro-2-(3-(methylamino)azetidin-1-yl)quinazolin-4-yl)-2,5-dimethylpiperazin-1-yl)prop-2-en-1-one], the Binding % result was “+++ (+++ indicates binding activity greater than 80%)”. The value for `[2H]C([2H])([2H])N(C1CN(c2nc(N3C[C@@H](C)N(C(=O)C=C)C[C@@H]3C)c3cc(Cl)c(-c4c(C)ccc5[nH]nc(C)c45)c(F)c3n2)C1)C([2H])([2H])[2H]` (atropisomer, axis not shown) [Compound 221, 1-((2R,5S)-4-((R)-6-chloro-7-(3,5-dimethyl-1H-indazol-4-yl)-2-(3-(di-perdeuteromethylamino)azetidin-1-yl)-8-fluoroquinazolin-4-yl)-2,5-dimethylpiperazin-1-yl)prop-2-en-1-one] was “+++ (+++ indicates binding activity greater than 80%)”.

As to `[2H]C([2H])([2H])N(C1CN(c2nc(N3C[C@@H](C)N(C(=O)C=C)C[C@@H]3C)c3cc(Cl)c(-c4c(C)ccc5[nH]nc(C)c45)c(F)c3n2)C1)C([2H])([2H])[2H]` (atropisomer, axis not shown) [Compound 222, 1-((2R,5S)-4-((S)-6-chloro-7-(3,5-dimethyl-1H-indazol-4-yl)-2-(3-(di-perdeuteromethylamino)azetidin-1-yl)-8-fluoroquinazolin-4-yl)-2,5-dimethylpiperazin-1-yl)prop-2-en-1-one], the Binding % entry was “+ (+ indicates binding activity greater than 0% and up to 50%)”.
